The assay concerns MDA-MB 231 human breast carcinoma cells. The assay is described as follows: Tumor cell migration direction under interstitial flow in 3D collagen I gel. The format is cell-based. The conditions noted are these: Src kinase inhibited with PP2. From the text: Cell culture system design and verification of interstitial flow field. A microfluidic cell culture system to culture breast cancer cells (MDA-MB 231) in a 3D collagen I matrix and to subject these cells to a controlled level of interstitial flow was employed. The system consists of two channels separated by a region containing single cells suspended in collagen I gel (FIG. 16A). By applying a hydrostatic pressure gradient across the gel region, a consistent flow field is generated. FEM software was used to solve Brinkman's equation for flow through porous medium for our system geometry (FIG. 16B). […] From the bead tracking data, the hydraulic permeability of 2 mg/ml collagen I gel was determined to be 1.55×10-13 m2, similar to previously published values.
Interstitial flow induced a directional bias in cellular migration. […] To quantify the migration direction of cell populations, two metrics are presented. […] To determine directional bias of migration along streamlines, a “directional migration metric” was computed that scored cells with a +1 if they migrated in the direction of flow and a −1 if they migrated against the flow (FIG. 17E). […]
Cells were incubated overnight at 37° C. […] Devices were allowed to reach thermal equilibrium at 37° C. before imaging (see Supplementary Methods in SI Appendix for details on imaging and data quantification). […]

Structures are written as SMILES.

As to `CC(C)(C)n1nc(-c2ccc(Cl)cc2)c2c(N)ncnc21` [PP2], the “direction of cell migration under interstitial flow” value is “cells migrated randomly, with no biased migration upstream or downstream”.
